Tests used:
Coagulation factor X [1] = molecular target: T1, Coagulation factor X (Homo sapiens, UniProt P00742); assay: In vitro inhibitory activity against human enzyme Coagulation factor X
Plasminogen = Plasminogen (Homo sapiens, UniProt P00747); assay: In vitro inhibitory activity against human enzyme plasmin
Coagulation factor X [2] = molecular target: T1, Coagulation factor X; assay: In vitro inhibitory activity against human prothrombinase
Prothrombin [3] = molecular target: T2, Prothrombin (Homo sapiens, UniProt P00734); assay: In vitro inhibitory activity against human enzyme thrombin
[4] = Ratio against factor Xa to prothrombinase
Serine protease 1 [5] = molecular target: T3, Serine protease 1 (Homo sapiens, UniProt P07477); assay: In vitro evaluation of inhibition of cleavage of the chromogenic substrate by human enzyme trypsin
Serine protease 1 [6] = molecular target: T3, Serine protease 1; assay: In vitro inhibitory activity against human enzyme trypsin
Coagulation factor X [7] = molecular target: T1, Coagulation factor X; assay: In vitro inhibitory activity against prothrombinase
Prothrombin [8] = molecular target: T2, Prothrombin; assay: In vitro inhibitory activity against by human enzyme thrombin

T3 sequence (P07477 whole entry): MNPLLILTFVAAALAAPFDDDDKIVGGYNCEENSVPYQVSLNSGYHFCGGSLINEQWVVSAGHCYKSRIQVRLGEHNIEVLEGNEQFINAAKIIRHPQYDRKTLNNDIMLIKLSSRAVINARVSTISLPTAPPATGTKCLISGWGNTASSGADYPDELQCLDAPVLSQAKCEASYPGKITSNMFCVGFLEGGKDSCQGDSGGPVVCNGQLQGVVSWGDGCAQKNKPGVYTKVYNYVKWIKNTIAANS
Chain of Plasminogen (P00747 97-580 limits assumed): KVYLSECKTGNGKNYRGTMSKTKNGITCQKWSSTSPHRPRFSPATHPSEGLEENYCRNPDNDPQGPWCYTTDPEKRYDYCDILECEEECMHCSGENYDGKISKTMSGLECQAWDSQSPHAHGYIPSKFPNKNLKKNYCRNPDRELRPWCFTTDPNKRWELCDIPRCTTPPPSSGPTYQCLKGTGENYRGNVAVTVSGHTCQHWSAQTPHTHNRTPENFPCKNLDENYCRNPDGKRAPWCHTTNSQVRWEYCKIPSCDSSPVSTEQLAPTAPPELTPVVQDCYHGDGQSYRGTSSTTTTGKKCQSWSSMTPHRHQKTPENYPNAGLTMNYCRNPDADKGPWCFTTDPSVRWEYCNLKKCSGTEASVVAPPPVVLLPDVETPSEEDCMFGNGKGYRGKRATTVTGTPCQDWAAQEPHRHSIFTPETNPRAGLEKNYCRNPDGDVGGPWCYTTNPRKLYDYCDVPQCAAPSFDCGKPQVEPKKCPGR
Chain of Plasminogen (P00747 581-810 limits assumed): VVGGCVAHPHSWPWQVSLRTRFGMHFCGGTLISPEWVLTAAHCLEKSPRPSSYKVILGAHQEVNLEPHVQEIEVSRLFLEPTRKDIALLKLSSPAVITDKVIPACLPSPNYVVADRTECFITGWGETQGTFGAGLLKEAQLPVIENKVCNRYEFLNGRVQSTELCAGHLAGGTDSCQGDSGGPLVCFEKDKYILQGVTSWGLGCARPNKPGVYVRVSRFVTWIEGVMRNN
T1 sequence (P00742 41-179 limits assumed): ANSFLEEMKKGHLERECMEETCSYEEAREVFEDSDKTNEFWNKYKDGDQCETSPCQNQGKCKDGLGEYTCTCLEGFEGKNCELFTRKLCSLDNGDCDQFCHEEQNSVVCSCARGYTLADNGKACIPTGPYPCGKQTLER
T1 sequence (P00742 235-488 limits assumed): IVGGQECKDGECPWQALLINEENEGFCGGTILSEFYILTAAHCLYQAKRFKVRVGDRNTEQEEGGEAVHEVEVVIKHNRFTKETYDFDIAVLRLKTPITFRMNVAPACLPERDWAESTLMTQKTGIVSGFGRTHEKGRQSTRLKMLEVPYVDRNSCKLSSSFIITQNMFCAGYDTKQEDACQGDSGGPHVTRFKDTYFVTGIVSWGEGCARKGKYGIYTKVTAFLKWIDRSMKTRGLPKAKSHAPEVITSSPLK

Row | Compound | IC50 (Coagulation factor X [1]) [nM] | IC50 (Plasminogen) [nM] | IC50 (Coagulation factor X [2]) [nM] | IC50 (Prothrombin [3]) [nM] | Ratio [4] | IC50 (Serine protease 1 [5]) [nM] | IC50 (Serine protease 1 [6]) [nM] | IC50 (Coagulation factor X [7]) [nM] | IC50 (Prothrombin [8]) [nM]
1 | COc1ccc2c(c1)N(CC(=O)N[C@H]1CCCN(C(=N)N)C1O)C(=O)[C@@H](NS(=O)(=O)Cc1ccccc1)CC2 (some centres not stated) | 28.9 | > 2500 | 64.3 | > 2500 | 2.2 | 40 |  |  | 
2 | N=C(N)N1CCC[C@H](NC(=O)CN2C(=O)[C@@H](NS(=O)(=O)Cc3ccccc3)CCc3ccccc32)C1O (some centres not stated) | 7.3 | > 2500 | 17.1 | 178 | 2.3 |  | 26 |  | 
3 | N=C(N)N1CCC[C@H](NC(=O)CN2CCCC[C@H](NS(=O)(=O)Cc3ccccc3)C2=O)C1O (some centres not stated) | 20.6 | > 2500 |  |  |  |  | 75 |  | 
4 | COc1ccc2c(c1)CC[C@H](NS(=O)(=O)CC1CCCCC1)C(=O)N2CC(=O)N[C@H]1CCCN(C(=N)N)C1O (some centres not stated) | 1.9 | > 2500 |  | 829 | 5.2 |  | 1.5 | 9.9 | 
5 | N=C(N)N1CCC[C@H](NC(=O)CN2C(=O)[C@H](NS(=O)(=O)Cc3ccccc3)CCc3ccccc32)C1O (some centres not stated) | 49 | > 2500 |  | 192 |  |  | 135 |  | 
6 | COc1ccc2c(c1)CC[C@H](NS(=O)(=O)c1ccc3ccccc3c1)C(=O)N2CC(=O)N[C@H]1CCCN(C(=N)N)C1O (some centres not stated) | 3.6 | > 2500 | 19.1 |  | 5.3 | 27 |  |  | 285
7 | COc1ccc2c(c1)CC[C@H](NS(=O)(=O)Cc1ccccc1)C(=O)N2CC(=O)N[C@H]1CCCN(C(=N)N)C1O (some centres not stated) | 7.2 | > 2500 | 34.9 | > 2500 | 4.8 | 110 |  |  | 
8 | COc1cccc2c1CC[C@H](NS(=O)(=O)Cc1ccccc1)C(=O)N2CC(=O)N[C@H]1CCCN(C(=N)N)C1O (some centres not stated) | 8.6 | > 2500 | 26.7 | 235 | 3.1 | 77 |  |  | 
9 | N=C(N)N1CCC[C@H](NC(=O)CN2C(=O)C(NS(=O)(=O)Cc3ccccc3)Cc3ccccc32)C1O (some centres not stated) | > 2500 | > 2500 |  | 17.9 |  |  | 289 |  | 
